Experiment [1] addresses T1, human recombinant HDAC1 (Homo sapiens, UniProt Q13547).
T1 construct: purchased Enzo Life Science BML-SE456
Nature of the experiment: HDAC1 enzyme activity inhibition assay (HDAC Fluorimetric Drug Discovery Kit). In kind it is biochemical. Particulars: human recombinant HDAC1, Fluor de Lys substrate 10 μM, 30° C. 60 minutes. As for the experimental part:
In order to examine the HDAC6 selectivity of the compounds of formula I of the present invention by HDAC1 and HDAC6 enzymatic activity inhibition assays, an experiment was performed using a conventional substance as a control.
HDAC enzyme activity was measured using a HDAC Fluorimetric Drug Discovery Kit (BML-AK511, 516, Enzo Life Science). For the HDAC1 enzyme activity test, human recombinant HDAC1 (BML-SE456) was used as an enzyme source, and Fluor de Lys®-“SIRT1 (BNL-KI177) was used as a substrate. A 5-fold dilution of the compound was seeded into a 96-well plate, and then 0.3 μg of the enzyme and 10 μM of the substrate were added to each well of the plate and allowed to react at 30° C. for 60 minutes. Then, Fluor de Lys®-Developer II (BML-KI176) was added thereto and allowed to react for 30 minutes, after which the fluorescence value (Ex 360, Em 460) was measured using a multi-plate reader (Flexstation 3, Molecular Device). The HDAC6 enzyme was tested using human recombinant HDAC6 (382180) (Calbiochem) according to the same protocol as the HDAC1 enzyme activity test method. Based on the resulting values, each IC5, value was calculated using GraphPad Prism4.0 program.

Experiment [2] deals with T2, human recombinant HDAC6 (Homo sapiens, UniProt Q9UBN7).
T2 construct: purchased Calbiochem 382180
T2 sequence (Q9UBN7 1-1215): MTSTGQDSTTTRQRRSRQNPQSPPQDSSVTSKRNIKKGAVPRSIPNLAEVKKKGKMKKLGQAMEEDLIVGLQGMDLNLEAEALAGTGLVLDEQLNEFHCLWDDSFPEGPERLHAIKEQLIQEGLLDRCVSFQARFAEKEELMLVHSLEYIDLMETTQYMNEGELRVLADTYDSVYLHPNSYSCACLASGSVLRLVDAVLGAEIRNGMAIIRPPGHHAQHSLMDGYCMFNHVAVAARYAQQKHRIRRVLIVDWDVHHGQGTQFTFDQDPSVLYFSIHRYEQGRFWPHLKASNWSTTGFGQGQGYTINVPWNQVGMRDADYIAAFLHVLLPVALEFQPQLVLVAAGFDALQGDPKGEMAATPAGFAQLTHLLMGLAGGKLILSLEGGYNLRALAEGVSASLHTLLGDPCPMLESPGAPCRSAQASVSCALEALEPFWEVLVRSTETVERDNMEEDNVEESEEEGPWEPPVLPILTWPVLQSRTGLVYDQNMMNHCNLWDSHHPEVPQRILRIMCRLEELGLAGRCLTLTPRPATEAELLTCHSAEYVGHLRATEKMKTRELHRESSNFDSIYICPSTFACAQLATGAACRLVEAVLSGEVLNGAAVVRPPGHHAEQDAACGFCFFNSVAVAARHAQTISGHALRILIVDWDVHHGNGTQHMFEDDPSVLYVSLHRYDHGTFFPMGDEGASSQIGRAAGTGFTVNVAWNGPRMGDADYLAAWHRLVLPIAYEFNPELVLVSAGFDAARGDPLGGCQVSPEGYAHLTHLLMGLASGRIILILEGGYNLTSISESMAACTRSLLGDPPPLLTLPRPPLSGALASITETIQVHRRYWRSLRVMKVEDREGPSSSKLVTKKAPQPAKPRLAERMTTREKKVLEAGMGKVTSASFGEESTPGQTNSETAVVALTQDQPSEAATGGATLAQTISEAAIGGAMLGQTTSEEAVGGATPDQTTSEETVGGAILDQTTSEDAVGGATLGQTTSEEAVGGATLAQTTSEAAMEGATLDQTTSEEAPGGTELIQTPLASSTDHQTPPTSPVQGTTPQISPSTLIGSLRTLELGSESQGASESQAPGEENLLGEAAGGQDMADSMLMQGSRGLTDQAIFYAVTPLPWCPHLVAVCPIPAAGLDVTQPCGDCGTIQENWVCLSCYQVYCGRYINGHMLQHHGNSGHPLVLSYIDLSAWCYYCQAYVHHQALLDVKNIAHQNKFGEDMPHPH
Nature of the experiment: HDAC6 enzyme activity inhibition assay (HDAC Fluorimetric Drug Discovery Kit). In kind it is biochemical. Particulars: for HDAC6 selectivity (fold): HDAC6 over HDAC1; for pIC50: human recombinant HDAC6, same protocol as HDAC1, read-out: HDAC6. A digest of the protocol: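 Human recombinant HDAC1 or HDAC6 (0.3 μg) reacted with 10 μM Fluor de Lys-SIRT1 substrate and 5-fold compound dilutions for 60 min at 30 °C. Developer II added for 30 min, fluorescence read at Ex 360/Em 460; IC50 calculated from the readings.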

Here are results for 9 molecules from patent US10717716B2, “1,3,4-oxadiazole derivative compounds as histone deacetylase 6 inhibitor, and the pharmaceutical composition comprising the same” (Chong Kun Dang Pharmaceutical Corp., priority 2015, dated 2020).

pIC50: −log10 of the molar value.

T1 sequence (Q13547 whole entry): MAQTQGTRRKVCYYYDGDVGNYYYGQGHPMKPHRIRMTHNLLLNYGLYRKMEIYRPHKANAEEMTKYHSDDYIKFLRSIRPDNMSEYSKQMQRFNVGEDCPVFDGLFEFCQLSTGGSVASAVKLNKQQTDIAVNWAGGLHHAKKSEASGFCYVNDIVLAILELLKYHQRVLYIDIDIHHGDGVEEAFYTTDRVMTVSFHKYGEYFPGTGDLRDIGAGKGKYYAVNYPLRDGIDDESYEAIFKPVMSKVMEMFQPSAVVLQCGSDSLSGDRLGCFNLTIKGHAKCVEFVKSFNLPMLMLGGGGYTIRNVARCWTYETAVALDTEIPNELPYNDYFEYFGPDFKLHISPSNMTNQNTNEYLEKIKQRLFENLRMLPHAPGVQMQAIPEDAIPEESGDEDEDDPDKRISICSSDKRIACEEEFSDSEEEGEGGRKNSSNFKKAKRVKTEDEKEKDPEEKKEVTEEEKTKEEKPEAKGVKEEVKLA

For `O=C(N1CCS(=O)(=O)CC1)N(Cc1ccc(-c2nnc(C(F)(F)F)o2)cc1)c1ccc(-c2ccccc2)cc1` [Compound 21485, N-([1,1′-biphenyl]-4-yl)-N-(4-(5-(trifluoromethyl)-1,3,4-oxadiazol-2-yl)benzyl)thiomorpholine-4-carboxamide 1,1-dioxide], the pIC50 in experiment [1] is 5.35. For the same molecule, in experiment [2], the “HDAC6 selectivity (fold)” value worked out at 12 fold and the pIC50 is 6.43.
For `Cn1ncc2ccc(-c3ccc(N(Cc4ccc(-c5nnc(C(F)(F)F)o5)cc4)C(=O)N4CCS(=O)(=O)CC4)cc3)cc21` [Compound 21487, N-(4-(1-methyl-1H-indazol-6-yl)phenyl)-N-(4-(5-(trifluoromethyl)-1,3,4-oxadiazol-2-yl)benzyl)thiomorpholine-4-carboxamide 1,1-dioxide], in that order: 5.71, 6 fold and 6.46.
As to `O=C(N1CCS(=O)(=O)CC1)N(Cc1ccc(-c2nnc(C(F)(F)F)o2)cc1)c1ccc(-c2cccnc2)cc1` [Compound 21489, N-(4-(pyridin-3-yl)phenyl)-N-(4-(5-(trifluoromethyl)-1,3,4-oxadiazol-2-yl)benzyl)thiomorpholine-4-carboxamide 1,1-dioxide], the pIC50 in experiment [1] was 5.78. Further, in experiment [2], the “HDAC6 selectivity (fold)” value amounted to 18 fold and the pIC50 was 7.05.
With `O=C(N1CCS(=O)(=O)CC1)N(Cc1ccc(-c2nnc(C(F)(F)F)o2)cc1)c1ccc(-c2ccoc2)cc1` [Compound 21491, N-(4-(furan-3-yl)phenyl)-N-(4-(5-(trifluoromethyl)-1,3,4-oxadiazol-2-yl)benzyl)thiomorpholine-4-carboxamide 1,1-dioxide], in experiment [1], the pIC50 was 5.39. For the same molecule, in experiment [2], the “HDAC6 selectivity (fold)” value is given as 25 fold and the pIC50 was 6.80.
The like results for `O=C(N1CCS(=O)(=O)CC1)N(Cc1ccc(-c2nnc(C(F)(F)F)o2)cc1)c1ccc(-c2ccc3c(c2)OCO3)cc1` [Compound 21493, N-(4-(benzo[d][1,3]dioxol-5-yl)phenyl)-N-(4-(5-(trifluoromethyl)-1,3,4-oxadiazol-2-yl)benzyl)thiomorpholine-4-carboxamide 1,1-dioxide] were, in that order, 5.76, 6 fold and 6.50.
For `O=C(N1CCS(=O)(=O)CC1)N(Cc1ccc(-c2nnc(C(F)(F)F)o2)cc1F)c1ccc(-c2cccnc2)cc1` [Compound 21517, N-(2-fluoro-4-(5-(trifluoromethyl)-1,3,4-oxadiazol-2-yl)benzyl)-N-(4-(pyridin-3-yl)phenyl)thiomorpholine-4-carboxamide 1,1-dioxide], in that order: 5.53, 31 fold and 7.03.
Turning to `O=C(N1CCS(=O)(=O)CC1)N(Cc1ccc(-c2nnc(C(F)(F)F)o2)cc1F)c1ccc(-c2ccncc2)cc1` [Compound 21519, N-(2-fluoro-4-(5-(trifluoromethyl)-1,3,4-oxadiazol-2-yl)benzyl)-N-(4-(pyridin-4-yl)phenyl)thiomorpholine-4-carboxamide 1,1-dioxide], the pIC50 in experiment [1] is 5.58. Moreover, in experiment [2], the “HDAC6 selectivity (fold)” value is 20 fold and the pIC50 was 6.88.
For the molecule `O=C(N1CCS(=O)(=O)CC1)N(Cc1ccc(-c2nnc(C(F)(F)F)o2)cc1F)c1ccc2c(c1)CCO2` [Compound 21543, N-(2,3-dihydrobenzofuran-5-yl)-N-(2-fluoro-4-(5-(trifluoromethyl)-1,3,4-oxadiazol-2-yl)benzyl)thiomorpholine-4-carboxamide 1,1-dioxide], the pIC50 in experiment [1] was 5.32. Also, in experiment [2], the “HDAC6 selectivity (fold)” value came out at 64 fold and the pIC50 is 7.14.
With `Cn1ncc2ccc(N(Cc3ccc(-c4nnc(C(F)(F)F)o4)cc3F)C(=O)N3CCS(=O)(=O)CC3)cc21` [Compound 21545, N-(2-fluoro-4-(5-(trifluoromethyl)-1,3,4-oxadiazol-2-yl)benzyl)-N-(1-methyl-1H-indazol-6-yl)thiomorpholine-4-carboxamide 1,1-dioxide], the pIC50 in experiment [1] is 5.35. Moreover, in experiment [2], the “HDAC6 selectivity (fold)” value turned out to be 85 fold and the pIC50 was 7.28.
